Source: patent US9346776B2, “Fused heterocyclic compound” (Takeda Pharmaceutical Company Limited, priority 2014, dated 2016)
Blank lines part the entries; values can stand above or below the molecule they belong to.

Assays:
[1] = target: T1, Human recombinant enteropeptidase (Homo sapiens, UniProt P98073); test: Human enteropeptidase inhibitory activity; assay type: biochemical; conditions: 3.3 uM compound; fluorescence 2 hours after start of reaction; read-out: Inhibition rate at 3.3 uM (%)
T1 construct: purchased ITSI-Biosciences, LLC #REN-260
Experimental: Test Example 1 Human enteropeptidase inhibitory activity Human recombinant enteropeptidase (#REN-260, ITSI-Biosciences, LLC) was diluted with an assay buffer (50 mM Tricine (pH 8.0), 0.01 (w/v) % Tween 20, 10 mM CaCl2) to prepare a 24 mU/mL enzyme solution. Subsequently, 5FAM-Abu-Gly-Asp-Asp-Asp-Lys-Ile-Val-Gly-Gly-Lys(CPQ2)-Lys-Lys-NH2 (purity: 97.2%, CPC Scientific, Inc.) produced according to a synthesis method known per se was diluted with an assay buffer to prepare a 2.1 uM (“u” represents “micro”) substrate solution. Each test compound was dissolved in DMSO to prepare a 1 mM solution, which was then diluted 100-fold with an assay buffer to prepare a compound solution. The compound solution (5 uL/well) and the substrate solution (5 uL/well) were added to a 384-well black plate (#784076, Greiner Bio-One) and mixed. Then, the enzyme solution (5 uL/well) was added to the plate and mixed to start reaction. The fluorescence intensity was measured at an excitation wavelength of 485 nm and a fluorescence wavelength of 535 nm using a fluorescence plate reader EnVision (PerkinElmer Inc.). Also, the same reaction as above was performed except that the test compound was not added (test compound non-supplemented group). In addition, the same reaction as above was performed except that neither the test compound nor the enzyme was added (control group). The inhibition rate was calculated from the fluorescence intensity 2 hours after the start of the reaction according to the following equation: Inhibition rate (%)=(1−(Fluorescence intensity of the test compound supplemented group−Fluorescence intensity of the control group)/(Fluorescence intensity of the test compound non-supplemented group−Fluorescence intensity of the control group))×100

[2] = tested on: high fat diet-fed (HFD-fed) mouse; test: Test on elevation of protein concentration in feces using HFD-fed mouse; assay type: in vivo; conditions: 10 mg/kg oral, feces recovered at day 1, mean ± SD, 5 mice
Experimental: Test Example 2 Test on elevation of protein concentration in feces using HFD-fed mouse A 0.5% methylcellulose suspension (test compound administered group, 5 mice per group) containing each test compound (10 mg/kg) or a 0.5% methylcellulose suspension (test compound non-administered group (vehicle), 5 mice per group) was orally administered to each high fat diet-fed (HFD-fed) mouse (D12079B diet, male, 18 weeks old), and the whole feces were recovered at day 1 of administration. The dry feces were dissolved in a 0.5 N aqueous sodium hydroxide solution. After centrifugation at 12,000 rpm, a protein concentration was quantified (Lowry method) using the supernatant to calculate a protein concentration (mg/g feces) in 1 g of feces. The mean and standard deviation of each group are shown below.

[3] = tested on: diet-induced obesity (DIO) mouse; test: Test on antiobesity action using DIO mouse; assay type: in vivo; conditions: mean ± SD; for Body weight(g) At start of administration: baseline
Experimental: Test Example 3 Test on antiobesity action using DIO mouse A 0.5% methylcellulose suspension (test compound administered group, 5 or 6 mice per group) containing each test compound (20 or 60 mg/kg) or a 0.5% methylcellulose suspension (test compound non-administered group (vehicle), 6 mice per group) was orally administered to each diet-induced obesity (DIO) mouse (D12079B diet, male, 46 weeks old) once a day for 4 weeks. The means of body weights and standard deviations at the start of administration and after 4-week continuous administration are shown below.

Male ob/ob mice = test: Hypoglycemic action on diabetes mellitus animal model (2-week continuous administration); assay type: in vivo, mouse; conditions: feed containing 0.03% compound for 2 weeks, mean ± SD
Description: Test Example 4 Hypoglycemic action on diabetes mellitus animal model (2-week continuous administration) Male ob/ob mice (6 weeks old) were used to prepare two groups each involving 5 individuals. One of the groups was fed as a control with feed free from a compound for 2 weeks, while the other group to receive compound treatment was fed with feed containing a compound at a concentration of 0.03% for 2 weeks. After 2 weeks, blood was collected from the tail vein of each mouse, and a diabetes mellitus-ameliorating action brought about by the compound treatment was evaluated. Blood glucose levels were measured using Hitachi automatic analyzer model 7180 (Hitachi, Ltd.), and glycated hemoglobin levels were measured using Tosoh automatic glycohemoglobin analyzer HLC-723G8 (Tosoh Corp.). The blood glucose and glycated hemoglobin levels of each group after the 2-week administration are indicated by mean±standard deviation in Table 6.

[4] = 20 mg/kg oral once a day for 4 weeks
[5] = 60 mg/kg oral once a day for 4 weeks

T1 sequence (P98073 whole entry): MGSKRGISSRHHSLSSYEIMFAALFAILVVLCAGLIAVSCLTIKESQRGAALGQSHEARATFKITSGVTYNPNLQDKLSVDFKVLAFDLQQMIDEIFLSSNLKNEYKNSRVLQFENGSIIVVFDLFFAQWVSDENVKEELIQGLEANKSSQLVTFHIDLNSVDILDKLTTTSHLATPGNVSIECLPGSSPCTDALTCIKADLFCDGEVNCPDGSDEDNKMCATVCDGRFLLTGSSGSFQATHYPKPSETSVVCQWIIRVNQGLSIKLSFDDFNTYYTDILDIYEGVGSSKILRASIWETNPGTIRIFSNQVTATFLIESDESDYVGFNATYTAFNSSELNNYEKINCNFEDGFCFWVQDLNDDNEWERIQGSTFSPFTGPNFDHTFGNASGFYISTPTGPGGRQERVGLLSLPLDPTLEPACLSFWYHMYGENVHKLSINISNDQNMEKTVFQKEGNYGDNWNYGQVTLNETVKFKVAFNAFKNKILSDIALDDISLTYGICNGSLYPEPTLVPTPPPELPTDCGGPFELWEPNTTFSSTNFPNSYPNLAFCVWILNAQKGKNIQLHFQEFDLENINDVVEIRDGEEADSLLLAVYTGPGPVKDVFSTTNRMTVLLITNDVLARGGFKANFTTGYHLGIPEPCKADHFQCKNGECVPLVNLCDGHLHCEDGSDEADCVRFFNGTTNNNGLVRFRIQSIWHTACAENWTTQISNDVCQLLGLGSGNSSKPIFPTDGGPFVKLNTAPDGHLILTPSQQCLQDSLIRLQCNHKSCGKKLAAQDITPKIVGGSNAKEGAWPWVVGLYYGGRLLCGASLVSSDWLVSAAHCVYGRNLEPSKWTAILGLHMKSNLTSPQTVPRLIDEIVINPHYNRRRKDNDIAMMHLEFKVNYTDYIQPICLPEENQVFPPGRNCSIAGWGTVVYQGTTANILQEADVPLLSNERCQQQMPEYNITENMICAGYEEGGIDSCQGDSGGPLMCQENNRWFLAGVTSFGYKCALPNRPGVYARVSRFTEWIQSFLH

SMILES: N=C(N)Nc1ccc(C(=O)Oc2ccc3c(c2)OC[C@H]3CC(=O)N[C@@H](CC(=O)O)C(=O)O)cc1 [Example 1, N-(((3S)-6-((4-Carbamimidamidobenzoyl)oxy)-2,3-dihydro-1-benzofuran-3-yl)acetyl)-L-aspartic acid]
inhibition at 3.3 µM [1]: 101%
Protein concentration in feces (mg/g feces) [2]: 177.6 ± 35.2 mg/g feces
Body weight(g) After 4-week continous administration [3, 4]: 43.8 ± 1.7 g
Body weight(g) At start of administration ([3]; 20 mg/kg oral once a day): 48.3 ± 2.0 g
Body weight(g) After 4-week continous administration [3, 5]: 41.7 ± 2.8 g
Body weight(g) At start of administration ([3]; 60 mg/kg oral once a day): 49.5 ± 2.2 g

SMILES: N=C(N)Nc1ccc(C(=O)Oc2ccc3c(c2)OC[C@@H]3CC(=O)N[C@@H](CC(=O)O)C(=O)O)cc1 [Example 2, N-(((3R)-6-((4-Carbamimidamidobenzoyl)oxy)-2,3-dihydro-1-benzofuran-3-yl)acetyl)-L-aspartic acid]
inhibition at 3.3 µM [1]: 101%
Protein concentration in feces (mg/g feces) [2]: 149.8 ± 24.4 mg/g feces
Body weight(g) After 4-week continous administration [3, 4]: 46.0 ± 2.8 g
Body weight(g) At start of administration ([3]; 20 mg/kg oral once a day): 49.6 ± 2.6 g
Body weight(g) After 4-week continous administration [3, 5]: 44.4 ± 4.5 g
Body weight(g) At start of administration ([3]; 60 mg/kg oral once a day): 49.8 ± 2.8 g

SMILES: Cc1cc(OC(=O)c2ccc(NC(=N)N)cc2)cc2c1C(CC(=O)N[C@@H](CC(=O)O)C(=O)O)CO2 (stereo partly drawn) [Example 3, N-((6-((4-Carbamimidamidobenzoyl)oxy)-4-methyl-2,3-dihydro-1-benzofuran-3-yl)acetyl)-L-aspartic acid]
inhibition at 3.3 µM [1]: 100%

SMILES: N=C(N)Nc1ccc(C(=O)Oc2ccc3c(c2)OC[C@H]3CC(=O)N[C@H](CC(=O)O)C(=O)O)cc1 [Example 4, N-(((3S)-6-((4-carbamimidamidobenzoyl)oxy)-2,3-dihydro-1-benzofuran-3-yl)acetyl)-D-aspartic acid]
inhibition at 3.3 µM [1]: 100%

SMILES: N=C(N)Nc1ccc(C(=O)Oc2ccc3c(c2)OC[C@@H]3CC(=O)N[C@H](CC(=O)O)C(=O)O)cc1 [Example 5, N-(((3R)-6-((4-carbamimidamidobenzoyl)oxy)-2,3-dihydro-1-benzofuran-3-yl)acetyl)-D-aspartic acid]
inhibition at 3.3 µM [1]: 101%

SMILES: N=C(N)Nc1ccc(C(=O)Oc2ccc3c(c2)OC[C@@H]3CC(=O)N[C@@H](CCC(=O)O)C(=O)O)cc1 [Example 6, N-(((3R)-6-((4-carbamimidamidobenzoyl)oxy)-2,3-dihydro-1-benzofuran-3-yl)acetyl)-L-glutamic acid]
inhibition at 3.3 µM [1]: 101%

SMILES: N=C(N)Nc1ccc(C(=O)Oc2ccc3c(c2)OC[C@H]3CC(=O)N[C@@H](CCC(=O)O)C(=O)O)cc1 [Example 7]
inhibition at 3.3 µM [1]: 101%

SMILES: N=C(N)Nc1ccc(C(=O)Oc2ccc3c(c2)OC[C@H]3CC(=O)N[C@@H](CC(=O)O)C(=O)O)cc1 [Example 12, N-(((3S)-6-((4-Carbamimidamidobenzoyl)oxy)-2,3-dihydro-1-benzofuran-3-yl)acetyl)-L-aspartic acid hydrate]
Blood glucose level (Male ob/ob mice): 144.2 ± 19.5 mg/dL
Glycated hemoglobin level (%) (Male ob/ob mice): 3.5 ± 0.1%

Other lines, results leading:

inhibition at 3.3 µM [1]: 100%
SMILES: N=C(N)Nc1ccc(C(=O)Oc2ccc3c(c2)OC[C@@H]3CC(=O)N(CC(=O)O)CC(=O)O)cc1 [Example 8, 2,2′-((((3R)-6-((4-carbamimidamidobenzoyl)oxy)-2,3-dihydro-1-benzofuran-3-yl)acetyl)imino)diacetic acid]

inhibition at 3.3 µM [1]: 100%
SMILES: N=C(N)Nc1ccc(C(=O)Oc2ccc3c(c2)OC[C@@H]3CC(=O)N(CCC(=O)O)CCC(=O)O)cc1 [Example 9, 3,3′-((((3R)-6-((4-carbamimidamidobenzoyl)oxy)-2,3-dihydro-1-benzofuran-3-yl)acetyl)imino)dipropanic acid]

inhibition at 3.3 µM [1]: 100%
SMILES: N=C(N)Nc1ccc(C(=O)Oc2cc(F)c3c(c2)OCC3CC(=O)N[C@@H](CC(=O)O)C(=O)O)cc1 (stereo partly drawn) [Example 10, N-((6-((4-Carbamimidamidobenzoyl)oxy)-4-fluoro-2,3-dihydro-1-benzofuran-3-yl)acetyl)-L-aspartic acid]

inhibition at 3.3 µM [1]: 98%
SMILES: Cc1c(OC(=O)c2ccc(NC(=N)N)cc2)ccc2c1OCC2CC(=O)N[C@@H](CC(=O)O)C(=O)O (stereo partly drawn) [Example 11, N-((6-((4-carbamimidamidobenzoyl)oxy)-7-methyl-2,3-dihydro-1-benzofuran-3-yl)acetyl)-L-aspartic acid]
